Species: Rattus norvegicus
Experiment: DrugMatrix - Regimen: Daily Repeat
Type: toxicity, organism-based, Sprague-Dawley
Design: regimen Daily Repeat, gender Male, age 6-8 weeks
Settings: in vivo, iv, 34 mg/kg, dose level High, vehicle 100 % SALINE; for ABSOLUTE BASOPHIL / ABSOLUTE EOSINOPHIL / ABSOLUTE LYMPHOCYTE / ABSOLUTE MONOCYTE / ABSOLUTE SEGMENTED NEUTROPHIL / BASOPHIL / EOSINOPHIL / ERYTHROCYTE COUNT / HEMATOCRIT / HEMOGLOBIN / LEUKOCYTE COUNT / LYMPHOCYTE / MEAN CORPUSCULAR HEMOGLOBIN / MEAN CORPUSCULAR HEMOGLOBIN CONCENTRATION / MEAN CORPUSCULAR VOLUME / MONOCYTE / NEUTROPHIL / NUCLEATED RED BLOOD CELLS / PLATELET COUNT: tissue Blood; for ALANINE AMINOTRANSFERASE / ALBUMIN / ALKALINE PHOSPHATASE / ASPARTATE AMINOTRANSFERASE / BLOOD UREA NITROGEN / CARBON DIOXIDE / CHLORIDE / CHOLESTEROL / CREATINE PHOSPHOKINASE / CREATININE / GLUCOSE / LACTATE DEHYDROGENASE / LIPASE / PHOSPHORUS / POTASSIUM / SODIUM / TOTAL BILIRUBIN / TOTAL PROTEIN / URIC ACID: tissue Plasma

CN[C@@H]1[C@@H](O)[C@@H](O[C@@H]2[C@@H](O)[C@H](O[C@H]3OC(CN)=CC[C@H]3N)[C@@H](N)C[C@H]2N)OC[C@]1(C)O [SISOMICIN]
ABSOLUTE BASOPHIL (72 h, time 3 day): 0 CELLS/uL
ABSOLUTE EOSINOPHIL (72 h, time 3 day): 0 CELLS/uL
ABSOLUTE LYMPHOCYTE (72 h, time 3 day): 14608 CELLS/uL
ABSOLUTE MONOCYTE (72 h, time 3 day): 68 CELLS/uL
ABSOLUTE SEGMENTED NEUTROPHIL (72 h, time 3 day): 824 CELLS/uL
BASOPHIL (72 h, time 3 day): 0%
EOSINOPHIL (72 h, time 3 day): 0%
ERYTHROCYTE COUNT (72 h, time 3 day): 5.47 x10E6/uL
HEMATOCRIT (72 h, time 3 day): 35.6%
HEMOGLOBIN (72 h, time 3 day): 14.07 G/DL
LEUKOCYTE COUNT (72 h, time 3 day): 15.5 x10E3/uL
LYMPHOCYTE (72 h, time 3 day): 94.67%
MEAN CORPUSCULAR HEMOGLOBIN (72 h, time 3 day): 25.73 pg
MEAN CORPUSCULAR HEMOGLOBIN CONCENTRATION (72 h, time 3 day): 39.53 G/DL
MEAN CORPUSCULAR VOLUME (72 h, time 3 day): 65.13 fL
MONOCYTE (72 h, time 3 day): 0.33%
NEUTROPHIL (72 h, time 3 day): 5%
NUCLEATED RED BLOOD CELLS (72 h, time 3 day): 0 /100WBC
PLATELET COUNT (72 h, time 3 day): 1451.67 x10E3/uL
ALANINE AMINOTRANSFERASE (72 h, time 3 day): 52.33 u/L
ALBUMIN (72 h, time 3 day): 4.2 G/DL
ALKALINE PHOSPHATASE (72 h, time 3 day): 295 u/L
ASPARTATE AMINOTRANSFERASE (72 h, time 3 day): 81.67 u/L
BLOOD UREA NITROGEN (72 h, time 3 day): 17.67 mg/dL
CARBON DIOXIDE (72 h, time 3 day): 24 mmol/L
CHLORIDE (72 h, time 3 day): 102.33 MEQ/L
CHOLESTEROL (72 h, time 3 day): 66.33 mg/dL
CREATINE PHOSPHOKINASE (72 h, time 3 day): 204.33 u/L
CREATININE (72 h, time 3 day): 0.22 mg/dL
GLUCOSE (72 h, time 3 day): 150.67 mg/dL
LACTATE DEHYDROGENASE (72 h, time 3 day): 135.33 u/L
LIPASE (72 h, time 3 day): 10.33 u/L
PHOSPHORUS (72 h, time 3 day): 11.77 mg/dL
POTASSIUM (72 h, time 3 day): 6.49 MEQ/L
SODIUM (72 h, time 3 day): 144.2 MEQ/L
TOTAL BILIRUBIN (72 h, time 3 day): 0.17 mg/dL
TOTAL PROTEIN (72 h, time 3 day): 6 G/DL
URIC ACID (72 h, time 3 day): 1.27 mg/dL
ABSOLUTE BASOPHIL (120 h, time 5 day): 0 CELLS/uL
ABSOLUTE EOSINOPHIL (120 h, time 5 day): 136 CELLS/uL
ABSOLUTE LYMPHOCYTE (120 h, time 5 day): 16493.67 CELLS/uL
ABSOLUTE MONOCYTE (120 h, time 5 day): 81 CELLS/uL
ABSOLUTE SEGMENTED NEUTROPHIL (120 h, time 5 day): 1222.67 CELLS/uL
BASOPHIL (120 h, time 5 day): 0%
EOSINOPHIL (120 h, time 5 day): 1%
ERYTHROCYTE COUNT (120 h, time 5 day): 5.67 x10E6/uL
HEMATOCRIT (120 h, time 5 day): 37.07%
HEMOGLOBIN (120 h, time 5 day): 14.6 G/DL
LEUKOCYTE COUNT (120 h, time 5 day): 17.93 x10E3/uL
LYMPHOCYTE (120 h, time 5 day): 92%
MEAN CORPUSCULAR HEMOGLOBIN (120 h, time 5 day): 25.73 pg
MEAN CORPUSCULAR HEMOGLOBIN CONCENTRATION (120 h, time 5 day): 39.43 G/DL
MEAN CORPUSCULAR VOLUME (120 h, time 5 day): 65.3 fL
MONOCYTE (120 h, time 5 day): 0.33%
NEUTROPHIL (120 h, time 5 day): 6.67%
NUCLEATED RED BLOOD CELLS (120 h, time 5 day): 0 /100WBC
PLATELET COUNT (120 h, time 5 day): 1387.67 x10E3/uL
ALANINE AMINOTRANSFERASE (120 h, time 5 day): 44 u/L
ALBUMIN (120 h, time 5 day): 4.3 G/DL
ALKALINE PHOSPHATASE (120 h, time 5 day): 391.67 u/L
ASPARTATE AMINOTRANSFERASE (120 h, time 5 day): 71.67 u/L
BLOOD UREA NITROGEN (120 h, time 5 day): 15.67 mg/dL
CARBON DIOXIDE (120 h, time 5 day): 22.33 mmol/L
CHLORIDE (120 h, time 5 day): 103.67 MEQ/L
CHOLESTEROL (120 h, time 5 day): 57.33 mg/dL
CREATINE PHOSPHOKINASE (120 h, time 5 day): 158 u/L
CREATININE (120 h, time 5 day): 0.22 mg/dL
GLUCOSE (120 h, time 5 day): 155 mg/dL
LACTATE DEHYDROGENASE (120 h, time 5 day): 130.67 u/L
LIPASE (120 h, time 5 day): 10 u/L
PHOSPHORUS (120 h, time 5 day): 12.63 mg/dL
POTASSIUM (120 h, time 5 day): 6.57 MEQ/L
SODIUM (120 h, time 5 day): 145.93 MEQ/L
TOTAL BILIRUBIN (120 h, time 5 day): 0.27 mg/dL
TOTAL PROTEIN (120 h, time 5 day): 6.17 G/DL
URIC ACID (120 h, time 5 day): 1.63 mg/dL

Source: ChEMBL document CHEMBL3885881, “DrugMatrix”
